{"source": "patent US6582968B2", "about": "“Paramagnetic and active analogue (EMP-2) of melanocyte stimulating hormone containing amino acid-type stable free radical” (Conselho Nacional de Desenvolvimento Cientifico e …, priority 1999, dated 2003)", "tested_on": "frog (Rana catesbeiana) skin", "experiment": "frog skin bioassay (skin darkening measured by reflectance)", "assay_type": "cell-based", "settings": "for time to reversal of the maximum response after removal of the agonist: 10^−8 M peptide, removal followed by several Ringer's solution washings, FIG. 5; for agonist character and potency compared to native α-MSH (dose-response curves): frog skin pigmentation, decrease in skin reflectance, FIG. 4", "procedure": "The biological activity assay of the EPM-2 was carried out comparatively to the native α-MSH. The classical method of measuring by reflectance the alteration in the frog skin pigmentation was assayed, see, Gen. Comp. Endocrinol. 55, 104 (1984). The potency of the synthesized hormone was determined through a dose-effect curve and long lasting activities were measured until a maximum of 3 h after the peptide removal from the incubation system carried out with successive washes. Briefly, the skin of the thigh and the dorsal portion of a frog were removed and cut in pieces of 2×2 cm which were placed among two rings of PVC and maintained for 1 h in Ringer's solution. After this period, the melanin granules aggregate in the melanocytes, and the skin becomes clearer. When α-MSH or its spin labeled analogue is added to the medium, there is a dispersion of the pigments in the cell, resulting in skin darkening. The change in the coloration is therefore monitored (decrease in the skin reflectance) in a photovolt reflectometer. The result is expressed as percentage in relation to the initial value."}
{"substance": "Acetyl-Ser-Tyr-Ser-Met-Glu-His-Phe-Arg-Trp-Gly-Lys-Pro-Val-CONH2 (Ac-SYSMEHFRWGKPV-NH2) [α-MSH, native melanocyte stimulating hormone, comparator, reference compound]", "values": [{"measurement": "time to reversal of the maximum response after removal of the agonist", "value": 90, "unit": "min"}]}
{"substance": "Acetyl-Toac-Ser-Tyr-Ser-Met-Glu-His-Phe-Arg-Trp-Gly-Lys-Pro-Val-CONH2 [EPM-2]", "values": [{"measurement": "time to reversal of the maximum response after removal of the agonist", "value": 90, "unit": "min"}, {"measurement": "agonist character and potency compared to native α-MSH (dose-response curves)", "value": "fully maintaining the biological potency of the native α-MSH"}, {"measurement": "agonist character and potency compared to native α-MSH (dose-response curves)", "setting": "listed as labeled analogue", "value": "full α-MSH agonist with equivalent potency"}, {"measurement": "natural biological activity maintained", "setting": "relative to native α-MSH", "value": 100, "unit": "%"}]}
